{
  "source": "ChEMBL document CHEMBL1138139",
  "about": "“Synthesis of 1-(3',4',5'-trimethoxy) phenyl naphtho[2,1b]furan as a novel anticancer agent” (Bioorg Med Chem Lett, 2006)",
  "assay_type_in_all_cases": "functional, cell-based",
  "key": {"PA-1": {"tested_on": "PA-1", "assay": "Cytotoxicity against human PA1 cell line by MTT assay"}, "KB": {"tested_on": "KB", "assay": "Cytotoxicity against human KB403 cell line by MTT assay"}, "WRL68": {"tested_on": "WRL68", "assay": "Cytotoxicity against human WRL68 cell line by MTT assay"}, "COLO 320DM": {"tested_on": "COLO 320DM", "assay": "Cytotoxicity against human COLO320DM cell line by MTT assay"}, "Caco-2": {"tested_on": "Caco-2", "assay": "Cytotoxicity against human Caco-2 cell line by MTT assay"}, "MCF7": {"tested_on": "MCF7", "assay": "Cytotoxicity against MCF7 cell line by MTT assay", "settings": "Homo sapiens"}},
  "data": [
    {"compound": "CC(=O)O[C@H]1C(=O)[C@@]2(C)[C@H]([C@H](OC(=O)c3ccccc3)[C@]3(O)C[C@H](OC(=O)[C@H](O)[C@@H](NC(=O)c4ccccc4)c4ccccc4)C(C)=C1C3(C)C)[C@]1(OC(C)=O)CO[C@@H]1C[C@@H]2O", "note": "[PACLITAXEL]", "values": [
      {"measurement": "IC50", "setting": "PA-1", "value": 0.006, "unit": "µg/mL"},
      {"measurement": "IC90", "setting": "PA-1", "value": 0.9, "unit": "µg/mL"},
      {"measurement": "IC50", "setting": "KB", "value": 0.001, "unit": "µg/mL"},
      {"measurement": "IC90", "setting": "KB", "value": 0.047, "unit": "µg/mL"},
      {"measurement": "IC50", "setting": "WRL68", "value": 0.0035, "unit": "µg/mL"},
      {"measurement": "IC90", "setting": "WRL68", "value": 2.5, "unit": "µg/mL"},
      {"measurement": "IC50", "setting": "COLO 320DM", "value": 0.0045, "unit": "µg/mL"},
      {"measurement": "IC90", "setting": "COLO 320DM", "value": 0.01, "unit": "µg/mL"},
      {"measurement": "IC50", "setting": "Caco-2", "value": 0.007, "unit": "µg/mL"},
      {"measurement": "IC90", "setting": "Caco-2", "value": 0.065, "unit": "µg/mL"},
      {"measurement": "IC90", "setting": "MCF7", "value": 0.85, "unit": "µg/mL"}
    ]},
    {"compound": "COc1cc(-c2coc3ccc4ccccc4c23)cc(OC)c1OC", "values": [
      {"measurement": "IC50", "setting": "PA-1", "value": 3.5, "unit": "µg/mL"},
      {"measurement": "IC90", "setting": "PA-1", "value": 4.5, "unit": "µg/mL"},
      {"measurement": "IC50", "setting": "KB", "value": 8, "unit": "µg/mL"},
      {"measurement": "IC90", "setting": "KB", "value": 10, "unit": "µg/mL"},
      {"measurement": "IC50", "setting": "WRL68", "value": 0.7, "unit": "µg/mL"},
      {"measurement": "IC90", "setting": "WRL68", "value": 5, "unit": "µg/mL"},
      {"measurement": "IC50", "setting": "COLO 320DM", "value": 0.65, "unit": "µg/mL"},
      {"measurement": "IC90", "setting": "COLO 320DM", "value": 4, "unit": "µg/mL"},
      {"measurement": "IC50", "setting": "Caco-2", "value": 0.5, "unit": "µg/mL"}
    ]},
    {"compound": "COc1ccc(-c2coc3ccc4ccccc4c23)cc1", "values": [
      {"measurement": "IC50", "setting": "PA-1", "value": 4, "unit": "µg/mL"},
      {"measurement": "IC90", "setting": "PA-1", "value": 8, "unit": "µg/mL"},
      {"measurement": "IC50", "setting": "WRL68", "value": 6, "unit": "µg/mL"},
      {"measurement": "IC50", "setting": "COLO 320DM", "value": 5, "unit": "µg/mL"},
      {"measurement": "IC50", "setting": "Caco-2", "value": 0.95, "unit": "µg/mL"},
      {"measurement": "IC90", "setting": "Caco-2", "value": 7.5, "unit": "µg/mL"}
    ]},
    {"compound": "c1ccc(-c2coc3ccc4ccccc4c23)cc1", "values": [
      {"measurement": "IC50", "setting": "KB", "value": 9, "unit": "µg/mL"}
    ]}
  ]
}
